Values of other authors in patent US20070014831A1, “Biodegradable occlusive device with moisture memory” (priority 2005, published 2007).

Experiments:
[1] = J Biomater Sci Polymer Edn 1999;10:63-78
[2] = in vivo
[3] = tested on: tissue culture

| SMILES | cytotoxicity compared with glutaraldehyde [1] | glutaraldehyde concentration used to crosslink materials above which a persistent foreign-body reaction occurred [2] | concentration at which cytotoxic [3] | concentration at which cytotoxic in tissue culture ([3]; in tissue culture, as low as) [ppm] |
| --- | --- | --- | --- | --- |
| COC(=O)C1=CO[C@@H](O)[C@@H]2C(CO)=CC[C@H]12 [Genipin] | significantly less cytotoxic than glutaraldehyde | – | – | – |
| O=CCCCC=O [glutaraldehyde] | – | above 0.05% | 10-25 ppm | ≥ 3 |
